Test results reported in ChEMBL document CHEMBL1201862, “PubChem BioAssay data set” (2004).
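Briefly, cells in 96-well plates were exposed to five compound concentrations for 48 h, and endpoints were estimated by linear interpolation. GI50: concentration for 50% inhibition of growth.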 The source made the active and inactive calls. No stated cut-off is given here; in the data, active = GI50 up to about 1.1 µM and inactive = higher.

Legend:
Test in all cases: growth of human tumour cells (NCI), 48 h
[1] = test system: T47D
[2] = test system: SK-MEL-5
[3] = test system: NCI/ADR-RES
[4] = test system: OVCAR-8
[5] = test system: NCI-H23
[6] = test system: NCI-H460
[7] = test system: 786-0
[8] = test system: K562
[9] = test system: RPMI-8226
[10] = test system: ACHN
[11] = test system: UO-31
[12] = test system: NCI-H226
[13] = test system: SK-MEL-2
[14] = test system: CCRF-CEM
[15] = test system: RXF 393
[16] = test system: MDA-MB-435
[17] = test system: SK-OV-3
[18] = test system: PC-3
[19] = test system: Hs-578T
[20] = test system: TK-10

SMILES	GI50 [1]	GI50 [2]	GI50 [3]	GI50 [4]	GI50 [5]	GI50 [6]	GI50 [7]	GI50 [8]	GI50 [9]	GI50 [10]	GI50 [11]	GI50 [12]	GI50 [13]	GI50 [14]	GI50 [15]	GI50 [16]	GI50 [17]	GI50 [18]	GI50 [19]	GI50 [20]
CSc1c([S+](C)[O-])c2ccccc2n1C (centres undefined)	> 100 µM (inactive)	> 100 µM (inactive)	> 100 µM (inactive)	> 100 µM (inactive)	> 100 µM (inactive)	> 100 µM (inactive)	> 100 µM (inactive)	> 100 µM (inactive)	> 100 µM (inactive)	> 100 µM (inactive)	> 100 µM (inactive)	> 100 µM (inactive)	> 100 µM (inactive)	> 100 µM (inactive)	> 100 µM (inactive)	> 100 µM (inactive)	> 100 µM (inactive)	> 100 µM (inactive)	> 100 µM (inactive)	> 100 µM (inactive)
NC(Cc1ccc2oc3cc(=O)c4ccccc4c-3nc2c1)C(=O)O (centres undefined)	38.5 µM (inactive)	4.92 µM (inactive)	47.4 µM (inactive)	37.4 µM (inactive)	4.31 µM (inactive)	11.5 µM (inactive)	50.2 µM (inactive)	34.2 µM (inactive)	42.2 µM (inactive)	55.7 µM (inactive)	33.8 µM (inactive)	27.3 µM (inactive)	22.6 µM (inactive)	40.7 µM (inactive)	77.6 µM (inactive)	4.4 µM (inactive)	> 100 µM (inactive)	> 83 µM (inactive)	11.7 µM (inactive)	69.7 µM (inactive)
COc1cc2c(cc1OC)C13CCN4CC5CCOC6CC(=O)N2C1C6C5CC43 (centres undefined)	> 100 µM (inactive)	> 100 µM (inactive)	> 100 µM (inactive)	> 100 µM (inactive)	> 100 µM (inactive)	> 100 µM (inactive)	> 100 µM (inactive)		> 100 µM (inactive)	> 100 µM (inactive)	> 100 µM (inactive)	> 100 µM (inactive)	> 100 µM (inactive)	54.5 µM (inactive)	> 100 µM (inactive)	> 100 µM (inactive)	> 100 µM (inactive)	> 100 µM (inactive)	> 100 µM (inactive)	> 100 µM (inactive)
CC(=O)CC(C)(C)NC(=O)[C@@]1(O)CC[C@H]2[C@@H]3CCC4=CC(=O)CC[C@@H]4[C@H]3CC[C@@]21C	63.1 µM (inactive)	72.8 µM (inactive)	> 100 µM (inactive)	> 100 µM (inactive)	> 100 µM (inactive)	> 100 µM (inactive)	> 100 µM (inactive)	> 100 µM (inactive)	> 100 µM (inactive)	> 100 µM (inactive)	> 100 µM (inactive)	> 100 µM (inactive)	> 100 µM (inactive)	> 100 µM (inactive)	> 100 µM (inactive)	> 100 µM (inactive)	> 100 µM (inactive)	> 100 µM (inactive)	> 100 µM (inactive)	> 100 µM (inactive)
Cc1cc(N(CCC#N)CCC#N)ccc1C(/N=N/c1ccc([N+](=O)[O-])cc1)=N\NC(=O)c1ccccc1	27 µM (inactive)	26.4 µM (inactive)	51.5 µM (inactive)	56.5 µM (inactive)	30.7 µM (inactive)	37.2 µM (inactive)	47.9 µM (inactive)	22.9 µM (inactive)	75.9 µM (inactive)	62.8 µM (inactive)	34.4 µM (inactive)	39.1 µM (inactive)	67 µM (inactive)	41.4 µM (inactive)	52.2 µM (inactive)	7.82 µM (inactive)	49.5 µM (inactive)	41.2 µM (inactive)	25.1 µM (inactive)	61.9 µM (inactive)
Clc1nncc2sc(-c3ccccc3)nc12	28.5 µM (inactive)	15.6 µM (inactive)	23.2 µM (inactive)	20.1 µM (inactive)	17.5 µM (inactive)	16.8 µM (inactive)	85.9 µM (inactive)	7.71 µM (inactive)	35.4 µM (inactive)	26.9 µM (inactive)	19.9 µM (inactive)	26 µM (inactive)	16.4 µM (inactive)	29 µM (inactive)	16.6 µM (inactive)	17.4 µM (inactive)	28.7 µM (inactive)	17.6 µM (inactive)	20.6 µM (inactive)	40.9 µM (inactive)
COc1ccc(CNC2=Nc3ccncc3S(=O)(=O)N2c2ccccc2)cc1	29.3 µM (inactive)	19 µM (inactive)	35.9 µM (inactive)	49.8 µM (inactive)	35.5 µM (inactive)	43.1 µM (inactive)	47.4 µM (inactive)	29 µM (inactive)	16.4 µM (inactive)	34 µM (inactive)	45.7 µM (inactive)	17 µM (inactive)	41.7 µM (inactive)	19.4 µM (inactive)	50.7 µM (inactive)	24.9 µM (inactive)	> 100 µM (inactive)	53.6 µM (inactive)	33.8 µM (inactive)	20.3 µM (inactive)
O=NN(Cc1ccc(Cl)cc1)C(C(=O)O)c1ccccc1 (centres undefined)	> 100 µM (inactive)	> 100 µM (inactive)	> 100 µM (inactive)	> 100 µM (inactive)	> 100 µM (inactive)	> 100 µM (inactive)	> 100 µM (inactive)	> 100 µM (inactive)	> 100 µM (inactive)	> 100 µM (inactive)	> 100 µM (inactive)	> 100 µM (inactive)	> 100 µM (inactive)	> 100 µM (inactive)	> 100 µM (inactive)	> 100 µM (inactive)	> 100 µM (inactive)	> 100 µM (inactive)	> 100 µM (inactive)	> 100 µM (inactive)
OC(CN(CCCl)CCCl)C(O)C(O)C(O)CN(CCCl)CCCl (centres undefined)	30.5 µM (inactive)	> 100 µM (inactive)	78.9 µM (inactive)	> 100 µM (inactive)	63.1 µM (inactive)	9.89 µM (inactive)	91 µM (inactive)	> 100 µM (inactive)	> 100 µM (inactive)	2.7 µM (inactive)	22.1 µM (inactive)	> 100 µM (inactive)	> 100 µM (inactive)	37.6 µM (inactive)	> 100 µM (inactive)	> 100 µM (inactive)	> 100 µM (inactive)	> 100 µM (inactive)	> 100 µM (inactive)	> 100 µM (inactive)
CNC(=S)c1nnsc1N	2.03 µM (inactive)	14 µM (inactive)	> 100 µM (inactive)	> 100 µM (inactive)	> 100 µM (inactive)	0.71 µM (active)	> 100 µM (inactive)	21.7 µM (inactive)	0.9 µM (active)	> 100 µM (inactive)	> 100 µM (inactive)	> 100 µM (inactive)	> 100 µM (inactive)	> 100 µM (inactive)	> 100 µM (inactive)	> 100 µM (inactive)	> 100 µM (inactive)	9.93 µM (inactive)	> 100 µM (inactive)	> 100 µM (inactive)
CCCCCC(O)(CCCCC)CCCCCCCCC1=C(O)C(=O)c2ccccc2C1=O	26.4 µM (inactive)	3.62 µM (inactive)	4.4 µM (inactive)	7.19 µM (inactive)	8.15 µM (inactive)	5.28 µM (inactive)	6.32 µM (inactive)	3.08 µM (inactive)	3.38 µM (inactive)	8.85 µM (inactive)	10.3 µM (inactive)	14 µM (inactive)	12.1 µM (inactive)	6.12 µM (inactive)	12.9 µM (inactive)	8.53 µM (inactive)	15.6 µM (inactive)	7.5 µM (inactive)	16.1 µM (inactive)	15 µM (inactive)
O=C(O)c1c2c(cc3c1CC1(Cc4cc5c(cc4C1=O)CCC5)C3)CCC2 (centres undefined)	80 µM (inactive)	> 100 µM (inactive)	> 100 µM (inactive)	> 100 µM (inactive)	81.1 µM (inactive)	71.1 µM (inactive)	> 100 µM (inactive)	52.4 µM (inactive)	> 100 µM (inactive)	56.4 µM (inactive)	> 100 µM (inactive)	> 100 µM (inactive)	> 100 µM (inactive)	46.2 µM (inactive)	92.9 µM (inactive)	> 100 µM (inactive)	> 100 µM (inactive)	> 100 µM (inactive)	> 100 µM (inactive)	> 100 µM (inactive)
O=C(/C=C/c1ccc(O)cc1)c1ccc(O)cc1 [4,4'-DIHYDROXYCHALCONE]	44.1 µM (inactive)	21.5 µM (inactive)	21.6 µM (inactive)	16.7 µM (inactive)	25.5 µM (inactive)	26.8 µM (inactive)	23.2 µM (inactive)	27.2 µM (inactive)	11.2 µM (inactive)	23.9 µM (inactive)	22 µM (inactive)	16.8 µM (inactive)	19.6 µM (inactive)	13.6 µM (inactive)	22.9 µM (inactive)	40.2 µM (inactive)	42.6 µM (inactive)	28.7 µM (inactive)	27 µM (inactive)	46.9 µM (inactive)
CC(=O)c1cc2c(s1)C(=O)c1scc(C(C)=O)c1C2=O	0.254 µM (active)	0.327 µM (active)	0.24 µM (active)	0.23 µM (active)	0.432 µM (active)	0.345 µM (active)	0.724 µM (active)	0.272 µM (active)	0.209 µM (active)	0.248 µM (active)	0.455 µM (active)	1.69 µM (inactive)	0.586 µM (active)	0.235 µM (active)	0.348 µM (active)	0.224 µM (active)	1.96 µM (inactive)	0.605 µM (active)	0.279 µM (active)	3.52 µM (inactive)
